Values of other authors as cited in US5216013A, “Aralkyl-N-terminal cycloalkoxy-C terminal amino hydroxy β-amino acid derivatives” (G. D. Searle & Co., priority 1992, dated 1993).
Square brackets hold non-standard residues; d marks the D form. Peptide text beside a SMILES is read from it. * marks the point of attachment. Sta = CC(C)C[C@H](N)[C@@H](O)CC(=O)O; Isovaleryl = CC(C)CC(=O)*

How the values were obtained:
hog renin = details: after the injection of hog renin into nephrectomized rats

SMILES: CC(C)CC(=O)N[C@H](C(=O)N[C@H](C(=O)N[C@@H](CC(C)C)[C@@H](O)CC(=O)N[C@@H](C)C(=O)N[C@@H](CC(C)C)[C@@H](O)CC(=O)O)C(C)C)C(C)C [pepstatin] (Isovaleryl-VV[Sta]A[Sta]-OH)
- blood pressure (hog renin): reduce blood pressure in vivo
- inhibition of pepsin (in words) (pepsin): inhibitor
- inhibition of cathepsin D (in words) (cathepsin D): inhibitor
- inhibition of renin (in words) (renin): inhibitor
